Measured values taken from patent publication US10800792B2, “Inhibitors of Bruton's tyrosine kinase and method of their use” (JANSSEN PHARMACEUTICA NV, priority 2015, dated 2020).

Target: unphosphorylated-BTK kinase domain (UP-BTK), GST-tagged human BTK (389-659aa) (Homo sapiens (Human), UniProt Q06187)
Assay: BTK kinase Lanthascreen binding assay
Conditions: pIC50 = negative log of the IC50 in molar; 60 minutes incubation, 50 nM Tracer 236
In short: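 Tracer-displacement binding assay against the non-phosphorylated enzyme, read by Lanthascreen. Reported: pIC50.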

unphosphorylated-BTK kinase domain (UP-BTK), GST-tagged human BTK (389-659aa), sequence (Q06187 389-659): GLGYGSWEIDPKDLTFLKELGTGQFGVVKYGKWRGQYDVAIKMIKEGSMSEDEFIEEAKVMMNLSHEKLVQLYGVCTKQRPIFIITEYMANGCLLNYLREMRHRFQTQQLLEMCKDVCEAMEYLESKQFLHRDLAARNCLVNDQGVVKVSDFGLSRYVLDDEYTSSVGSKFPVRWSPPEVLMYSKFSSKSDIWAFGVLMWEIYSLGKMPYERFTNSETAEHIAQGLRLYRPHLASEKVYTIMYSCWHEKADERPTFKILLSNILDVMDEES

| SMILES | BTK_I_binding pIC50 |
| --- | --- |
| COC[C@H](N)C(=O)N1CCC[C@@H](NC(=O)c2sc3nccc4c3c2NC(=O)N4c2ccc(Oc3ccccc3)cc2C)C1 [Example 120, N—((R)-1-((S)-2-Amino-3-methoxypropanoyl)piperidin-3-yl)-5-(2-methyl-4-phenoxyphenyl)-4-oxo-4,5-dihydro-3H-1-thia-3,5,8-triazaacenaphthylene-2-carboxamide] | 7.1 |
| C=CC(=O)N1CCC[C@@H](NC(=O)c2sc3nccc4c3c2NC(=O)N4c2ccc(Oc3ccccc3)nn2)C1 [Example 121, (R)—N-(1-Acryloylpiperidin-3-yl)-4-oxo-5-(6-phenoxypyridazin-3-yl)-4,5-dihydro-3H-1-thia-3,5,8-triazaacenaphthylene-2-carboxamide] | 6.7 |
| Cc1cc(Oc2ccccc2)ccc1N1C(=O)Nc2c(C(=O)NC3CCOCC3)sc3nccc1c23 [Example 123, 5-(2-Methyl-4-phenoxyphenyl)-4-oxo-N-(tetrahydro-2H-pyran-4-yl)-4,5-dihydro-3H-1-thia-3,5,8-triazaacenaphthylene-2-carboxamide] | 6.9 |
| Cc1cc(Oc2ccccc2)ccc1N1C(=O)Nc2c(C(=O)N[C@@H]3CCCN(C(=O)[C@H]4CCN(C)C4)C3)sc3nccc1c23 [Example 125, 5-(2-Methyl-4-phenoxyphenyl)-N—((R)-1-((S)-1-methylpyrrolidine-3-carbonyl)piperidin-3-yl)-4-oxo-4,5-dihydro-3H-1-thia-3,5,8-triazaacenaphthylene-2-carboxamide] | 7.2 |
| Cc1c(N2C(=O)Nc3c(C(=O)N[C@@H]4CCCN(C(=O)CCO)C4)sc4nccc2c34)ccc(Oc2ccccc2)c1F [Example 128, (R)-5-(3-Fluoro-2-methyl-4-phenoxyphenyl)-N-(1-(3-hydroxypropanoyl)piperidin-3-yl)-4-oxo-4,5-dihydro-3H-1-thia-3,5,8-triazaacenaphthylene-2-carboxamide] | 7.2 |
| Cc1cc(Oc2ccccc2)ccc1N1C(=O)Nc2c(C(=O)NC3COCCN(C)C3)sc3nccc1c23 (centres unmarked) [Example 129, N-(4-Methyl-1,4-oxazepan-6-yl)-5-(2-methyl-4-phenoxyphenyl)-4-oxo-4,5-dihydro-3H-1-thia-3,5,8-triazaacenaphthylene-2-carboxamide] | 6.9 |
| Cc1cc(Oc2ccccc2)ccc1N1C(=O)Nc2c(C(=O)N[C@@H]3CCCN(C(=O)CCN(C)C)C3)sc3nccc1c23 [Example 130, (R)—N-(1-(3-(Dimethylamino)propanoyl)piperidin-3-yl)-5-(2-methyl-4-phenoxyphenyl)-4-oxo-4,5-dihydro-3H-1-thia-3,5,8-triazaacenaphthylene-2-carboxamide] | 7.1 |
| Cc1cc(Oc2ccccc2)ccc1N1C(=O)Nc2c(C(=O)N[C@@H]3CCCN(C(=O)[C@H]4CCNC4)C3)sc3nccc1c23 [Example 131, 5-(2-Methyl-4-phenoxyphenyl)-4-oxo-N—((R)-1-((S)-pyrrolidine-3-carbonyl)piperidin-3-yl)-4,5-dihydro-3H-1-thia-3,5,8-triazaacenaphthylene-2-carboxamide] | 7.5 |
| CN1CCC[C@@H](NC(=O)c2sc3nccc4c3c2NC(=O)N4c2ccc(Oc3ccccc3)cc2Cl)C1 [Example 133, (R)-5-(2-Chloro-4-phenoxyphenyl)-N-(1-methylpiperidin-3-yl)-4-oxo-4,5-dihydro-3H-1-thia-3,5,8-triazaacenaphthylene-2-carboxamide] | 7.0 |
| Cc1cc(Oc2ccccc2)ccc1N1C(=O)Nc2c(C(=O)N[C@@H]3CCCN(C(=O)/C(C#N)=C\C(C)(C)N(C)C)C3)sc3nccc1c23 [Example 134, (R,Z)—N-(1-(2-Cyano-4-(dimethylamino)-4-methylpent-2-enoyl)piperidin-3-yl)-5-(2-methyl-4-phenoxyphenyl)-4-oxo-4,5-dihydro-3H-1-thia-3,5,8-triazaacenaphthylene-2-carboxamide] | 7.1 |
| CN1CCC[C@@H](NC(=O)c2sc3nccc4c3c2NC(=O)N4c2ccc(Oc3ccccc3)cc2F)C1 [Example 135, (R)-5-(2-Fluoro-4-phenoxyphenyl)-N-(1-methylpiperidin-3-yl)-4-oxo-4,5-dihydro-3H-1-thia-3,5,8-triazaacenaphthylene-2-carboxamide] | 7.2 |
| Cc1cc(Oc2ccccc2)ccc1N1C(=O)Nc2c(C(=O)N[C@@H]3CCCN(C(=O)C4COC4)C3)sc3nccc1c23 [Example 136, (R)-5-(2-Methyl-4-phenoxyphenyl)-N-(1-(oxetane-3-carbonyl)piperidin-3-yl)-4-oxo-4,5-dihydro-3H-1-thia-3,5,8-triazaacenaphthylene-2-carboxamide] | 7.1 |
| Cc1cc(Oc2ccccc2)ccc1N1C(=O)Nc2c(C(=O)N[C@H]3CNC[C@H](F)C3)sc3nccc1c23 [Example 138, N-((3R,5R)-5-fluoropiperidin-3-yl)-5-(2-methyl-4-phenoxyphenyl)-4-oxo-4,5-dihydro-3H-1-thia-3,5,8-triazaacenaphthylene-2-carboxamide] | 7.0 |
| COCCC(=O)N1C[C@H](NC(=O)c2sc3nccc4c3c2NC(=O)N4c2ccc(Oc3ccccc3)cc2C)[C@@H](O)C1 [Example 139, N-((3S,4S)-4-Hydroxy-1-(3-methoxypropanoyl)pyrrolidin-3-yl)-5-(2-methyl-4-phenoxyphenyl)-4-oxo-4,5-dihydro-3H-1-thia-3,5,8-triazaacenaphthylene-2-carboxamide] | 7.2 |
| CC(C)=C(C#N)C(=O)N1CCC[C@@H](NC(=O)c2sc3nccc4c3c2NC(=O)N4c2ccc(Oc3ccccc3)cc2C)C1 [Example 140, (R)—N-(1-(2-Cyano-3-methylbut-2-enoyl)piperidin-3-yl)-5-(2-methyl-4-phenoxyphenyl)-4-oxo-4,5-dihydro-3H-1-thia-3,5,8-triazaacenaphthylene-2-carboxamide] | 6.7 |
| COC[C@@H](O)C(=O)N1CCC[C@@H](NC(=O)c2sc3nccc4c3c2NC(=O)N4c2ccc(Oc3ccccc3)cc2C)C1 [Example 143, N—((R)-1-((R)-2-Hydroxy-3-methoxypropanol)piperidin-3-yl)-5-(2-methyl-4-phenoxyphenyl)-4-oxo-4,5-dihydro-3H-1-thia-3,5,8-triazaacenaphthylene-2-carboxamide] | 7.3 |
| C=C(C(=O)N1CCC[C@@H](NC(=O)c2sc3nccc4c3c2NC(=O)N4c2ccc(Oc3ccccc3)cc2C)C1)C(F)(F)F [Example 144, (R)-5-(2-Methyl-4-phenoxyphenyl)-4-oxo-N-(1-(2-(trifluoromethyl)acryloyl)piperidin-3-yl)-4,5-dihydro-3H-1-thia-3,5,8-triazaacenaphthylene-2-carboxamide] | 7.5 |

Results, then the compound that gave them:

| BTK_I_binding pIC50 | SMILES |
| --- | --- |
| 6.9 | Cc1cc(Oc2ccccc2)ccc1N1C(=O)Nc2c(C(=O)N[C@@H]3CCN(C(C)C)C3)sc3nccc1c23 [Example 118, (R)—N-(1-Isopropylpyrrolidin-3-yl)-5-(2-methyl-4-phenoxyphenyl)-4-oxo-4,5-dihydro-3H-1-thia-3,5,8-triazaacenaphthylene-2-carboxamide] |
| 6.6 | C=CC(=O)N1CC[C@@H](NC(=O)c2sc3nccc4c3c2NC(=O)N4c2ccc(CC)cc2C)C1 [Example 119, (R)—N-(1-Acryloylpyrrolidin-3-yl)-5-(4-ethyl-2-methylphenyl)-4-oxo-4,5-dihydro-3H-1-thia-3,5,8-triazaacenaphthylene-2-carboxamide] |
| 7.4 | COC[C@H](O)C(=O)N1CCC[C@@H](NC(=O)c2sc3nccc4c3c2NC(=O)N4c2ccc(Oc3ccccc3)cc2C)C1 [Example 122, N—((R)-1-((S)-2-Hydroxy-3-methoxypropanoyl)piperidin-3-yl)-5-(2-methyl-4-phenoxyphenyl)-4-oxo-4,5-dihydro-3H-1-thia-3,5,8-triazaacenaphthylene-2-carboxamide] |
| 7.4 | Cc1cc(Oc2ccccc2)ccc1N1C(=O)Nc2c(C(=O)N[C@@H]3CCCN(C(=O)CO)C3)sc3nccc1c23 [Example 124, (R)—N-(1-(2-Hydroxyacetyl)piperidin-3-yl)-5-(2-methyl-4-phenoxyphenyl)-4-oxo-4,5-dihydro-3H-1-thia-3,5,8-triazaacenaphthylene-2-carboxamide] |
| 6.7 | C=CC(=O)N1CC[C@@H](NC(=O)c2sc3nccc4c3c2NC(=O)N4c2ccc(OC(C)C)cc2C)C1 [Example 126, (R)—N-(1-Acryloylpyrrolidin-3-yl)-5-(4-isopropoxy-2-methylphenyl)-4-oxo-4,5-dihydro-3H-1-thia-3,5,8-triazaacenaphthylene-2-carboxamide] |
| 7.2 | Cc1cc(Oc2ccccc2)ccc1N1C(=O)Nc2c(C(=O)N[C@H]3CN(C)C[C@H]3F)sc3nccc1c23 [Example 132, N-((3S,4R)-4-Fluoro-1-methylpyrrolidin-3-yl)-5-(2-methyl-4-phenoxyphenyl)-4-oxo-4,5-dihydro-3H-1-thia-3,5,8-triazaacenaphthylene-2-carboxamide] |
| 6.6 | C=CC(=O)N1CC[C@@H](N(C)C(=O)c2sc3nccc4c3c2NC(=O)N4c2ccc(Oc3ccccc3)cc2C)C1 [Example 137, (R)—N-(1-Acryloylpyrrolidin-3-yl)-N-methyl-5-(2-methyl-4-phenoxyphenyl)-4-oxo-4,5-dihydro-3H-1-thia-3,5,8-triazaacenaphthylene-2-carboxamide] |
| 6.8 | CCN1CC[C@@H](NC(=O)c2sc3nccc4c3c2NC(=O)N4c2ccc(Oc3ccccc3)cc2C)C1 [Example 141, (R)—N-(1-Ethylpyrrolidin-3-yl)-5-(2-methyl-4-phenoxyphenyl)-4-oxo-4,5-dihydro-3H-1-thia-3,5,8-triazaacenaphthylene-2-carboxamide] |
| 7.2 | COC[C@H](OC)C(=O)N1CCC[C@@H](NC(=O)c2sc3nccc4c3c2NC(=O)N4c2ccc(Oc3ccccc3)cc2C)C1 [Example 142, N—((R)-1-((S)-2,3-Dimethoxypropanoyl)piperidin-3-yl)-5-(2-methyl-4-phenoxyphenyl)-4-oxo-4,5-dihydro-3H-1-thia-3,5,8-triazaacenaphthylene-2-carboxamide] |
